Test results published in patent US20080261933A1, “COMBINATION OF PROGESTERONE-RECEPTOR ANTAGONIST TOGETHER WITH A LUTEIN-HORMONE-RELEASING HORMONE AGONIST AND ANTAGONIST FOR USE IN BRCA MEDIATED DISEASES” (priority 2007, published 2008).

Experiments:
[1] = oral; cited from earlier work
[2] = test system: glucocorticoid; conditions: causes severe side effects; cited from earlier work
[3] = test system: mammary tumors in Brca1/p53-deficient mice; conditions: mice with BRCA1- or BRCA2 inactivated in mammary glands; cited from earlier work
[4] = molecular target: T1, progesterone receptor (Homo sapiens, UniProt P06401); experiment: Endocrinological profile of the progesterone-receptor antagonist
T1 sequence (P06401 1-933): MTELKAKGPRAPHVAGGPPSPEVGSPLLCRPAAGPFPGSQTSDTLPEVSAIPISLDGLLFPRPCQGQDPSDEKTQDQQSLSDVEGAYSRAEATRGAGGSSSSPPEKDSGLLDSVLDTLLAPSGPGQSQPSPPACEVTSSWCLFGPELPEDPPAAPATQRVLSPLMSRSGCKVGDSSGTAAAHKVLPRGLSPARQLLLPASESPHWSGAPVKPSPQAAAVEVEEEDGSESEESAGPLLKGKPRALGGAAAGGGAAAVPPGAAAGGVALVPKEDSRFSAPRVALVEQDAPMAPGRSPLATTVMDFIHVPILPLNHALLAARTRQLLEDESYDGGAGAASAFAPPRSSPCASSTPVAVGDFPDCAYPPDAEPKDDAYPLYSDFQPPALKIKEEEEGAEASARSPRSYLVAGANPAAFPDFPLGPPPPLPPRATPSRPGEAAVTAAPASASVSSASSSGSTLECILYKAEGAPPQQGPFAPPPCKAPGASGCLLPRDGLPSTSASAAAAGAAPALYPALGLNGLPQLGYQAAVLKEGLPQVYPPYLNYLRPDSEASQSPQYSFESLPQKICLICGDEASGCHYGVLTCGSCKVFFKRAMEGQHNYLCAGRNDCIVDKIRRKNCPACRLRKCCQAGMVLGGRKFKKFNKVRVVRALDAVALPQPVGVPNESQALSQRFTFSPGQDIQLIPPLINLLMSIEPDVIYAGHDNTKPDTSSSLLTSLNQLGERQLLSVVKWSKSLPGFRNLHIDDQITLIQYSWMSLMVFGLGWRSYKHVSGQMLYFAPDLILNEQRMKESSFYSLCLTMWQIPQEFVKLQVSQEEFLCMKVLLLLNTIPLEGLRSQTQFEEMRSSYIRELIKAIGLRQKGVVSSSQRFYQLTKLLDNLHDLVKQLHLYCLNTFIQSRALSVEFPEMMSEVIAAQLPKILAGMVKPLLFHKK
Text: has high antiprogestagenic activity with little or no other endocrinological effects (Fuhrmann, U. et al., J. Med. Chem. 2000, 43, 5010-5016).

[5] = test system: tumor cells; experiment: Apoptosis of tumor cells
Text: Such other hormone-dependent diseases may include ovarian cancer, endometrial cancer, myeloma, myoma, lung cancer, meningioma, i.e., diseases which substantially originate or are influenced by the presence of hormone receptors and/or hormone-dependent pathways.

[6] = molecular target: T1, progesterone receptor; conditions: Fuhrmann et al., J. Med. Chem. 2000; cited from earlier work

Compound | bioavailability when administered orally [1] | anti-glucocorticoid activity [2] | development of mammary tumors [3] | endocrine side effects such as androgen, estrogen or antiglucocorticoid activity [4] | apoptosis of tumor cells [5] | antiprogestagenic activity [6] | other endocrinological effects [6]
CC#C[C@]1(O)CC[C@H]2[C@@H]3CCC4=CC(=O)CCC4=C3[C@@H](c3ccc(N(C)C)cc3)C[C@@]21C [mifepristone] | poor | strong | blocks the development of mammary tumors | – | – | – | –
CC(=O)c1ccc([C@H]2C[C@@]3(C)[C@@H](CC[C@@]3(O)C(F)(F)C(F)(F)F)[C@@H]3CCC4=CC(=O)CCC4=C32)cc1 [ZK230211, 11β-(4-acetylphenyl)-17β-hydroxy-17α-(1,1,2,2,2-pentafluoroethyl)-estra-4,9-dien-3-one] | – | – | – | only very weak or no | increased apoptosis | high | little or no
